Source: PubChem BioAssay (NCI)
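Each compound was tested at five concentrations against cells in 96-well plates for 48 hours. Abbreviation: GI50, concentration required for 50% inhibition of growth. TGI marks complete inhibition of growth.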

Experiments:
Experiment in all cases: inhibition of tumour cell growth, NCI panel, 48 h
[1] = test system: NCI/ADR-RES ovarian
[2] = test system: CAKI-1 renal
[3] = test system: UACC-62 melanoma
[4] = test system: SK-MEL-5 melanoma
[5] = test system: SN12C renal
[6] = test system: A498 renal
[7] = test system: HOP-92 NSCLC
[8] = test system: K-562 leukemia
[9] = test system: SF-539 CNS
[10] = test system: SW-620 colon

Row | SMILES | GI50 [1] | TGI [1] | GI50 [2] | TGI [2] | GI50 [3] | TGI [3] | GI50 [4] | TGI [4] | GI50 [5] | TGI [5] | GI50 [6] | TGI [6] | GI50 [7] | GI50 [8] | TGI [8] | GI50 [9] | TGI [9] | GI50 [10] | TGI [10] | TGI [7]
1 | COC(=O)[C@H](Cc1cnc[nH]1)NC(=O)[C@@H](NC(=O)Nc1cc(C(F)(F)F)cc(C(F)(F)F)c1)C(C)C | 33.7 µM | > 100 µM | 15.9 µM | 32.7 µM | 13.9 µM | 27.2 µM | 17.1 µM | 31.1 µM | 14.5 µM | 28 µM | 13 µM | 27.3 µM | 5.33 µM | 19.2 µM | 40.5 µM | 17 µM | 32.3 µM | 18 µM | 35.5 µM | –
2 | NCCCC[C@@H]1NC(=O)[C@H](CC(=O)O)NC(=O)CNC(=O)[C@H](CCCN=C(N)N)NC(=O)[C@@H](N)CSSC[C@@H](C(=O)O)NC(=O)[C@H](CC(=O)O)NC(=O)[C@@H]2CCCN2C(=O)CNC1=O | > 100 µM | > 100 µM | > 100 µM | > 100 µM | > 100 µM | > 100 µM | > 100 µM | > 100 µM | > 100 µM | > 100 µM | > 100 µM | > 100 µM | > 100 µM | > 100 µM | > 100 µM | > 100 µM | > 100 µM | > 100 µM | > 100 µM | > 100 µM
3 | COc1ccc(C/C(=C(\C)c2ccc(OCCN3CCCC3)cc2)c2ccc(OCCN3CCCC3)cc2)cc1 | 1.96 µM | 3.71 µM | 1.66 µM | 3.09 µM | 1.78 µM | 3.38 µM | 1.72 µM | 3.11 µM | 1.67 µM | 3.2 µM | 2.5 µM | 8.04 µM | 1.96 µM | 1.53 µM | 3.6 µM | 1.8 µM | 3.25 µM | 1.75 µM | 3.65 µM | 8.25 µM
4 | Cc1ccc(S(=O)(=O)SC(C)(C)C)cc1 | – | 90.4 µM | – | 41.4 µM | – | 48.6 µM | – | > 100 µM | – | > 65.2 µM | – | > 100 µM | – | – | 54.4 µM | – | > 77.8 µM | – | 47.9 µM | > 100 µM
5 | COc1cccc(CC(C)=C(c2ccc(OCCN3CCCCC3)cc2)c2ccc(OCCN3CCCCC3)cc2)c1 | 2.1 µM | 4.34 µM | 2.3 µM | 4.29 µM | 2.1 µM | 4.17 µM | 2.23 µM | 4.17 µM | 2.02 µM | 4.04 µM | 1.75 µM | 3.72 µM | 0.612 µM | 0.315 µM | 0.802 µM | 2.11 µM | 4.11 µM | 1.74 µM | 3.78 µM | 2.59 µM
6 | O=S(=O)(NNc1ccccc1)c1ccccc1 | – | 36.1 µM | – | 13.5 µM | – | 30 µM | – | 12.7 µM | – | 18.7 µM | – | > 100 µM | – | – | 39.5 µM | – | > 100 µM | – | > 100 µM | 55.4 µM
7 | CC1=C(SCCC(=O)OC(C[Se]C2=C(C)C(=O)c3ccccc3C2=O)C(=O)NCCCCCC(=O)OCc2ccccc2)C(=O)c2ccccc2C1=O (centres undefined) | 4.59 µM | 18.3 µM | 6.89 µM | 21.3 µM | 8.04 µM | 20.9 µM | 3.81 µM | 14.9 µM | 4.63 µM | 16.7 µM | 11.9 µM | > 100 µM | 2.7 µM | 3.04 µM | > 100 µM | 4.49 µM | 15.3 µM | 2.43 µM | 9.34 µM | 7.89 µM
